PubChem BioAssay (NCI)
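48-hour exposure; five concentrations; linearly interpolated endpoints. TGI denotes the concentration required for complete inhibition of growth.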

What was measured:
Test in all cases: inhibition of tumour cell growth, NCI panel, 48 h
SR leukemia = system: SR leukemia
IGROV1 ovarian = system: IGROV1 ovarian
M14 melanoma = system: M14 melanoma
ACHN renal = system: ACHN renal
CCRF-CEM leukemia = system: CCRF-CEM leukemia
KM12 colon = system: KM12 colon
CAKI-1 renal = system: CAKI-1 renal
OVCAR-4 ovarian = system: OVCAR-4 ovarian
K-562 leukemia = system: K-562 leukemia
SW-620 colon = system: SW-620 colon
PC-3 prostate = system: PC-3 prostate
T-47D breast = system: T-47D breast

Row | SMILES | TGI (SR leukemia) | TGI (IGROV1 ovarian) | TGI (M14 melanoma) | TGI (ACHN renal) | TGI (CCRF-CEM leukemia) | TGI (KM12 colon) | TGI (CAKI-1 renal) | TGI (OVCAR-4 ovarian) | TGI (K-562 leukemia) | TGI (SW-620 colon) | TGI (PC-3 prostate) | TGI (T-47D breast)
1 | C=C1C(=O)OC2(C)C3CCC(C3)C12 (stereo not drawn) | > 100 µM | > 100 µM | 95.7 µM | > 100 µM | > 100 µM | > 100 µM | 99.4 µM | > 100 µM | > 100 µM | > 100 µM |  | 
2 | CCN(CC)CCCOC(=O)/C=C/c1c(C)[nH]c(=O)[nH]c1=O |  | > 625 µM |  |  | > 625 µM | > 625 µM | > 625 µM | > 394 µM | > 625 µM | > 625 µM |  | 
3 | O=c1/c(=C\c2ccccc2)sc2n1C(c1ccccc1)C1(O)CCCCC1N=2 (stereo not drawn) | > 100 µM | > 100 µM | > 100 µM | > 100 µM | > 100 µM |  | > 100 µM | > 100 µM | > 100 µM | > 100 µM | > 100 µM | > 100 µM
4 | CCCCCCCCCCCCCCCCSCC(COC)COP(=O)([O-])OCC[N+](C)(C)C (stereo not drawn) |  | 4.77 µM |  |  | 10.1 µM | 2.45 µM | 12.7 µM | 15.3 µM | 28 µM | 17.7 µM |  | 
5 | COC1=C(N=[N+]=[N-])C(=O)c2ncccc2C1=O | > 100 µM | 13.1 µM | 8.66 µM | 15 µM |  | 29.5 µM | 13.3 µM | 5.7 µM | 15.2 µM | 4.24 µM | 29 µM | 3.85 µM
6 | N#Cc1c(SCc2ccccc2)nc(-c2ccccc2)[nH]c1=S |  | 79.4 µM | 89.8 µM | 63.3 µM | > 100 µM | 34.5 µM | 79 µM | > 100 µM | > 100 µM | 60 µM | 35.2 µM | 80.2 µM
7 | CN(C(=O)Cc1ccc(Cl)c(Cl)c1)[C@H]1CCCC[C@@H]1[N+]1(C)CCCC1 | > 100 µM | > 100 µM | > 100 µM | > 100 µM |  | > 100 µM | > 100 µM | > 100 µM | > 100 µM | > 100 µM | > 100 µM | > 100 µM
8 | COC(=O)c1cc(NC(=O)c2cc(NC(=O)c3cc([N+](=O)[O-])cn3C)cn2C)cn1C |  |  | > 100 µM | > 100 µM | > 100 µM | > 100 µM | > 100 µM | > 100 µM | > 100 µM | > 100 µM | > 100 µM | > 100 µM
9 | CCOc1cc(NC(C)=O)ccc1C(=O)NN1C(=O)C(Oc2ccccc2)C1c1ccccc1 (stereo not drawn) | 23.7 µM | > 100 µM |  | > 100 µM | > 100 µM | > 100 µM | > 100 µM | > 100 µM | > 100 µM | > 100 µM | > 100 µM | > 100 µM
10 | Cc1cc(-c2[nH]c(C(=O)O)cc2I)on1 |  | > 100 µM | > 100 µM | > 100 µM |  | > 100 µM | > 100 µM | > 100 µM | > 100 µM | > 100 µM | > 100 µM | 
